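1) Cells in 96-well plates. 2) Compound, 48 h, 5 concentrations. 3) Linear interpolation between surrounding doses. 4) Unreached endpoint = highest concentration. At the GI50, growth is halved. TGI marks complete inhibition of growth.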
Tests used:
Assay in all cases: NCI tumour cell line growth inhibition, 48 h
SF-295 CNS = tested on: SF-295 CNS
BT-549 breast = tested on: BT-549 breast
COLO 205 colon = tested on: COLO 205 colon
SR leukemia = tested on: SR leukemia
UACC-257 melanoma = tested on: UACC-257 melanoma
MDA-MB-231 breast = tested on: MDA-MB-231 breast
OVCAR-5 ovarian = tested on: OVCAR-5 ovarian
SW-620 colon = tested on: SW-620 colon
KM12 colon = tested on: KM12 colon
SK-MEL-28 melanoma = tested on: SK-MEL-28 melanoma
SNB-75 CNS = tested on: SNB-75 CNS
OVCAR-8 ovarian = tested on: OVCAR-8 ovarian
NCI-H522 lung = tested on: NCI-H522 lung
A549 NSCLC = tested on: A549 NSCLC
NCI-H460 lung = tested on: NCI-H460 lung
HOP-62 NSCLC = tested on: HOP-62 NSCLC
SK-MEL-5 melanoma = tested on: SK-MEL-5 melanoma
NCI-H226 lung = tested on: NCI-H226 lung
NCI-H23 lung = tested on: NCI-H23 lung
MCF7 breast = tested on: MCF7 breast
OVCAR-3 ovarian = tested on: OVCAR-3 ovarian
UO-31 renal = tested on: UO-31 renal
EKVX NSCLC = tested on: EKVX NSCLC
SNB-19 CNS = tested on: SNB-19 CNS
HT29 colon = tested on: HT29 colon
HCT-116 colon = tested on: HCT-116 colon
HCC-2998 colon = tested on: HCC-2998 colon
MALME-3M melanoma = tested on: MALME-3M melanoma
RXF 393 renal = tested on: RXF 393 renal
SK-OV-3 ovarian = tested on: SK-OV-3 ovarian
M14 melanoma = tested on: M14 melanoma
SK-MEL-2 melanoma = tested on: SK-MEL-2 melanoma
HOP-92 NSCLC = tested on: HOP-92 NSCLC
U251 CNS = tested on: U251 CNS
RPMI-8226 leukemia = tested on: RPMI-8226 leukemia
SN12C renal = tested on: SN12C renal
LOX IMVI melanoma = tested on: LOX IMVI melanoma
T-47D breast = tested on: T-47D breast
DU-145 prostate = tested on: DU-145 prostate
ACHN renal = tested on: ACHN renal
CCRF-CEM leukemia = tested on: CCRF-CEM leukemia
HS 578T breast = tested on: HS 578T breast
HL-60(TB) leukemia = tested on: HL-60(TB) leukemia
786-0 renal = tested on: 786-0 renal
SF-268 CNS = tested on: SF-268 CNS
K-562 leukemia = tested on: K-562 leukemia
OVCAR-4 ovarian = tested on: OVCAR-4 ovarian
A498 renal = tested on: A498 renal
MDA-MB-468 breast = tested on: MDA-MB-468 breast
HCT-15 colon = tested on: HCT-15 colon
MOLT-4 leukemia = tested on: MOLT-4 leukemia
TK-10 renal = tested on: TK-10 renal
CAKI-1 renal = tested on: CAKI-1 renal
PC-3 prostate = tested on: PC-3 prostate
MDA-MB-435 = tested on: MDA-MB-435
UACC-62 melanoma = tested on: UACC-62 melanoma

With Cc1ccc(C(=O)Nc2ccc(-n3ccnc3)c(C(F)(F)F)c2)cc1C#Cc1cnc2cccnn12 the GI50 (SF-295 CNS) was 1270 nM, the TGI (SF-295 CNS) was > 45800 nM and the GI50 (BT-549 breast) was 1420 nM. The TGI (BT-549 breast) was 4080 nM, the GI50 (COLO 205 colon) was 1220 nM and the TGI (COLO 205 colon) was > 45800 nM. For the same compound, the GI50 (SR leukemia) was 1330 nM, the TGI (SR leukemia) was > 45800 nM and the GI50 (UACC-257 melanoma) was 1190 nM. The TGI (UACC-257 melanoma) was > 45800 nM, the GI50 (MDA-MB-231 breast) was 331 nM and the TGI (MDA-MB-231 breast) was 3210 nM. The GI50 (OVCAR-5 ovarian) was 1020 nM, the TGI (OVCAR-5 ovarian) was > 45800 nM and the GI50 (SW-620 colon) was 1190 nM. The TGI (SW-620 colon) was > 45800 nM, the GI50 (KM12 colon) was 203 nM and the TGI (KM12 colon) was > 45800 nM. The GI50 (SK-MEL-28 melanoma) was 790 nM, the TGI (SK-MEL-28 melanoma) was 5780 nM and the GI50 (SNB-75 CNS) was 690 nM. For the same compound, the TGI (SNB-75 CNS) was 5750 nM, the GI50 (OVCAR-8 ovarian) was 1320 nM and the TGI (OVCAR-8 ovarian) was > 45800 nM. The GI50 (NCI-H522 lung) was 851 nM, the TGI (NCI-H522 lung) was 3360 nM and the GI50 (A549 NSCLC) was 1820 nM. For the same compound, the TGI (A549 NSCLC) was > 45800 nM, the GI50 (NCI-H460 lung) was 1730 nM and the TGI (NCI-H460 lung) was > 45800 nM. For the same compound, the GI50 (HOP-62 NSCLC) was 1360 nM, the TGI (HOP-62 NSCLC) was > 45800 nM and the GI50 (SK-MEL-5 melanoma) was 1270 nM. For the same compound, the TGI (SK-MEL-5 melanoma) was 4920 nM, the GI50 (NCI-H226 lung) was 567 nM and the TGI (NCI-H226 lung) was 14400 nM. For the same compound, the GI50 (NCI-H23 lung) was 1020 nM, the TGI (NCI-H23 lung) was > 45800 nM and the GI50 (MCF7 breast) was 2140 nM. The TGI (MCF7 breast) was > 45800 nM, the GI50 (OVCAR-3 ovarian) was 2380 nM and the TGI (OVCAR-3 ovarian) was > 45800 nM. The GI50 (UO-31 renal) was 702 nM, the TGI (UO-31 renal) was > 45800 nM and the GI50 (EKVX NSCLC) was 3110 nM. For the same compound, the TGI (EKVX NSCLC) was > 45800 nM, the GI50 (SNB-19 CNS) was 6060 nM and the TGI (SNB-19 CNS) was > 45800 nM. For the same compound, the GI50 (HT29 colon) was 915 nM, the TGI (HT29 colon) was > 45800 nM and the GI50 (HCT-116 colon) was 917 nM. The TGI (HCT-116 colon) was > 45800 nM, the GI50 (HCC-2998 colon) was 1130 nM and the TGI (HCC-2998 colon) was > 45800 nM. It also gave a GI50 (MALME-3M melanoma) of 198 nM, a TGI (MALME-3M melanoma) of 1720 nM and a GI50 (RXF 393 renal) of 1120 nM. The TGI (RXF 393 renal) was 3310 nM, the GI50 (SK-OV-3 ovarian) was 5180 nM and the TGI (SK-OV-3 ovarian) was > 45800 nM. For the same compound, the GI50 (M14 melanoma) was 567 nM, the TGI (M14 melanoma) was > 45800 nM and the GI50 (SK-MEL-2 melanoma) was 458 nM. For the same compound, the TGI (SK-MEL-2 melanoma) was 2510 nM, the GI50 (HOP-92 NSCLC) was 702 nM and the TGI (HOP-92 NSCLC) was 3100 nM. The GI50 (U251 CNS) was 3660 nM, the TGI (U251 CNS) was > 45800 nM and the GI50 (RPMI-8226 leukemia) was 830 nM. The TGI (RPMI-8226 leukemia) was 3600 nM, the GI50 (SN12C renal) was 1060 nM and the TGI (SN12C renal) was > 45800 nM. The GI50 (LOX IMVI melanoma) was 637 nM, the TGI (LOX IMVI melanoma) was > 45800 nM and the GI50 (T-47D breast) was 943 nM. For the same compound, the TGI (T-47D breast) was 4110 nM, the GI50 (DU-145 prostate) was 2530 nM and the TGI (DU-145 prostate) was > 45800 nM. The GI50 (ACHN renal) was 1640 nM, the TGI (ACHN renal) was 20500 nM and the GI50 (CCRF-CEM leukemia) was 1380 nM. For the same compound, the TGI (CCRF-CEM leukemia) was > 45800 nM, the GI50 (HS 578T breast) was 713 nM and the TGI (HS 578T breast) was 2930 nM. The GI50 (HL-60(TB) leukemia) was 215 nM, the TGI (HL-60(TB) leukemia) was 1540 nM and the GI50 (786-0 renal) was 2700 nM. For the same compound, the TGI (786-0 renal) was > 45800 nM, the GI50 (SF-268 CNS) was 1980 nM and the TGI (SF-268 CNS) was > 45800 nM. For the same compound, the GI50 (K-562 leukemia) was 4.58 nM, the TGI (K-562 leukemia) was > 45800 nM and the GI50 (OVCAR-4 ovarian) was 1300 nM. The TGI (OVCAR-4 ovarian) was > 45800 nM, the GI50 (A498 renal) was 2690 nM and the TGI (A498 renal) was > 45800 nM. For the same compound, the GI50 (MDA-MB-468 breast) was 1570 nM, the TGI (MDA-MB-468 breast) was > 45800 nM and the GI50 (HCT-15 colon) was 1290 nM. The TGI (HCT-15 colon) was > 45800 nM, the GI50 (MOLT-4 leukemia) was 822 nM and the TGI (MOLT-4 leukemia) was 3510 nM. For the same compound, the GI50 (TK-10 renal) was 2910 nM, the TGI (TK-10 renal) was > 45800 nM and the GI50 (CAKI-1 renal) was 1420 nM. For the same compound, the TGI (CAKI-1 renal) was 16000 nM, the GI50 (PC-3 prostate) was 1550 nM and the TGI (PC-3 prostate) was 12100 nM. The GI50 (MDA-MB-435) was 1100 nM, the TGI (MDA-MB-435) was > 45800 nM and the GI50 (UACC-62 melanoma) was 495 nM. The TGI (UACC-62 melanoma) was 1620 nM.

Reference: PubChem BioAssay (NCI)
